{"source": "patent US10087156B2", "about": "“Methods and compositions related to retinoid receptor-selective pathway” (Sanford Burnham Prebys Medical Discovery Institute, priority 2010, dated 2018)", "key": {"RXRα LBD": {"target": "RXRα LBD (Homo sapiens, UniProt P19793)", "sequence (P19793 227-458 limits assumed)": "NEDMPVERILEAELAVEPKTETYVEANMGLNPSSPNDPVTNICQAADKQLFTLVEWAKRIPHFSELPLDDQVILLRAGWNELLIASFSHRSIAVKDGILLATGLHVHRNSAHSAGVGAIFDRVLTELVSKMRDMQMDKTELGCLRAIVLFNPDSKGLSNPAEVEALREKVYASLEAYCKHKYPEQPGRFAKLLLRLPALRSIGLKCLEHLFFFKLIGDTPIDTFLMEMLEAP", "assay": "19F NMR binding assay", "settings": "100 μM compound, 10 μM RXRα LBD"}, "AKT [1]": {"test_system": "AKT", "assay": "Retinoic acid-induced AKT activation by immunoblotting", "format": "cell-based", "settings": "50 μM each, Caco-2 and MEF cells", "description": "MEF and Caco-2 cells were starved overnight and pretreated with Sulindac for 30 min before exposure to all-trans-retinoic acid (ATRA) (10^−7 M) for 30 min and analyzed for AKT activation (FIG. 12B).\nCaco-2 and MEF cells were treated with the indicated concentration of Sulindac or K-80003 for 30 min, then stimulated with all-trans-RA (10^−7 M) for 15 min. AKT activation was analyzed by immunoblotting."}, "COX-1": {"target": "T1, COX-1 (Ovis aries, UniProt P05979)", "T1 construct": "purchased Cayman Chemical 700100", "T1 sequence (P05979 25-600)": "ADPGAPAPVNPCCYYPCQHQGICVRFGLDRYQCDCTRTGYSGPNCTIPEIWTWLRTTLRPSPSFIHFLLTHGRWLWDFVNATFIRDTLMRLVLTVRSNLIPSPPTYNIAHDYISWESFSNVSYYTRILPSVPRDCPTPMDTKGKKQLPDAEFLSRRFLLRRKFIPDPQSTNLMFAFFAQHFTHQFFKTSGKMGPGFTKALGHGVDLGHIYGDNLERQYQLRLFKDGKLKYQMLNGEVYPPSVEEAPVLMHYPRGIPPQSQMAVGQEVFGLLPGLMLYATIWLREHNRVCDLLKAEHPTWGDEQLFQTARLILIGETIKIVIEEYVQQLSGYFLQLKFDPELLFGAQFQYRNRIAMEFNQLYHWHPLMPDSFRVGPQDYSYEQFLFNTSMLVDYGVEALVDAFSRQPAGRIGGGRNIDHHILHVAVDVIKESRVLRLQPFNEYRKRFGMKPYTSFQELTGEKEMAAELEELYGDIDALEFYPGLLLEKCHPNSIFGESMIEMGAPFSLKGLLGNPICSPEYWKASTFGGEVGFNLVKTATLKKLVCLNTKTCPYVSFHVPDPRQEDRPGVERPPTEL", "assay": "COX activity assay", "format": "biochemical", "protocol": "(§1) COX Fluorescent Activity Assay Kit (700200), COX Fluorescent Inhibitor Screening Assay Kit (700100) and Prostaglandin E2 Enzyme Immunoassay (EIA) Kit (514010) were obtained from Cayman Chemical (Ann Arbor, Mich.). COX-1 and COX-2 activity assay were performed according to the manufacturer's protocol."}, "COX-2": {"target": "T2, COX-2 (Homo sapiens, UniProt P35354)", "T2 construct": "purchased Cayman Chemical 700100", "T2 sequence (P35354 18-604)": "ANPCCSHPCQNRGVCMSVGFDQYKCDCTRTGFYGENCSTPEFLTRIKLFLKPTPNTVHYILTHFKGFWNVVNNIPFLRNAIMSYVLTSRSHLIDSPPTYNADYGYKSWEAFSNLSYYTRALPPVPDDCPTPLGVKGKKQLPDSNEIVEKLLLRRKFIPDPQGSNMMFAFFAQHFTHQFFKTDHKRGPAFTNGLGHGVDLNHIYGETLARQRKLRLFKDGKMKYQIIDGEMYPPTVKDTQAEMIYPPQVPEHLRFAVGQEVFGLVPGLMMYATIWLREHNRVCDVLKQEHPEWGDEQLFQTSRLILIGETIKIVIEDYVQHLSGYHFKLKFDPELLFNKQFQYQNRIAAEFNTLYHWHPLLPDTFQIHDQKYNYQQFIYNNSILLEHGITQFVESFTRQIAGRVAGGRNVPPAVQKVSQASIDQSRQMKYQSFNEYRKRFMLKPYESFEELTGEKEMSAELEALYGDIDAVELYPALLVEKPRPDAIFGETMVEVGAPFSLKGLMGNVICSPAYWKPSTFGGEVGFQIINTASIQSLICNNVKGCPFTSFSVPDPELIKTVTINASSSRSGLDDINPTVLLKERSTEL", "assay": "COX activity assay", "format": "biochemical", "protocol": "as §1"}, "RXRα/Δ80 tumor": {"test_system": "RXRα/Δ80 tumor", "assay": "RXRα/Δ80 tumor growth in animals", "format": "in vivo", "settings": "mice, 60 mg/kg intraperitoneally, two weeks", "protocol": "Mice (n=6) were treated intraperitoneally with corn oil, Sulindac (60 mg/kg), or K-80003 (60 mg/kg) for two weeks. Tumors were removed and measured. […] Together, the RXRα-selective Sulindac analog K-80003 is a potent inhibitor of RXRα-mediated PI3K/AKT signaling and cancer cell growth."}, "[2]": {"assay": "Preclinical bioavailability and pharmacokinetics", "format": "in vivo", "protocol": "Preclinical studies of K-80003 were performed, including the investigation of toxicity, bioavailability, and pharmacokinetics."}, "RARγ protein": {"target": "RARγ protein (Homo sapiens, UniProt P13631)", "sequence (P13631 whole entry, species assumed)": "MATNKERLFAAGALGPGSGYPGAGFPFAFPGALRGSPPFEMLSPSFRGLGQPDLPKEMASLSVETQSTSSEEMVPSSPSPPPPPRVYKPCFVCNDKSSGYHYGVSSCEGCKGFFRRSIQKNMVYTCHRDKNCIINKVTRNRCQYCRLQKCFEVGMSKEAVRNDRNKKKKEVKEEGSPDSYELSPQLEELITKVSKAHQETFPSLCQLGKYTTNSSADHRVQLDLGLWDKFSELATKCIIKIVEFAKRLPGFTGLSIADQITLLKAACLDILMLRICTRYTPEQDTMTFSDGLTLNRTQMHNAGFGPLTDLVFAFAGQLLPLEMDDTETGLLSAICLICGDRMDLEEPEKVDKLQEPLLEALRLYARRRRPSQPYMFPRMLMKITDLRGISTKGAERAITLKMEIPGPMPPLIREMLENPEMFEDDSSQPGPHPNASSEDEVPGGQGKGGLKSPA", "assay": "Ligand-binding assay with [3H]all-trans-RA", "settings": "competition with [3H]all-trans-RA", "protocol": "Purified RARγ protein was incubated with [^3H]all-trans-RA in the presence or absence of Sulindac or unlabeled all-trans RA. Bound [^3H]all-trans-RA was quantitated by liquid scintillation counting."}, "RXRα/TRα heterodimers": {"target": "T3, RXRα/TRα heterodimers (Homo sapiens, UniProt P19793)", "T3 construct": "expressed in transfected cells; host or cells: CV-1 green monkey kidney cells", "T3 sequence (P19793 whole entry)": "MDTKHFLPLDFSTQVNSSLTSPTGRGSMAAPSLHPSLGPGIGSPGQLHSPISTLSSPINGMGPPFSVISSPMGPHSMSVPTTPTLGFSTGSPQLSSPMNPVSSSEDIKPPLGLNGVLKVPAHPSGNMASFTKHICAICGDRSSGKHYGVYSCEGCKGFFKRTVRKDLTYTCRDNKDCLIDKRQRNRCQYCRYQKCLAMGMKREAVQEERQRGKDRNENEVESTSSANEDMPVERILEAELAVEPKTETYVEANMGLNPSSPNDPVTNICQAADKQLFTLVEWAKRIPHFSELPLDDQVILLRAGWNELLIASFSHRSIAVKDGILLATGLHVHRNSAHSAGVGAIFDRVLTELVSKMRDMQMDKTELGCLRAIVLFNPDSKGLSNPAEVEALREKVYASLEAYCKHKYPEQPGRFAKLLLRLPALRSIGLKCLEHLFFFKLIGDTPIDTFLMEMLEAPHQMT", "T3 sequence (P10827 1-410 isoform P10827-2 partner)": "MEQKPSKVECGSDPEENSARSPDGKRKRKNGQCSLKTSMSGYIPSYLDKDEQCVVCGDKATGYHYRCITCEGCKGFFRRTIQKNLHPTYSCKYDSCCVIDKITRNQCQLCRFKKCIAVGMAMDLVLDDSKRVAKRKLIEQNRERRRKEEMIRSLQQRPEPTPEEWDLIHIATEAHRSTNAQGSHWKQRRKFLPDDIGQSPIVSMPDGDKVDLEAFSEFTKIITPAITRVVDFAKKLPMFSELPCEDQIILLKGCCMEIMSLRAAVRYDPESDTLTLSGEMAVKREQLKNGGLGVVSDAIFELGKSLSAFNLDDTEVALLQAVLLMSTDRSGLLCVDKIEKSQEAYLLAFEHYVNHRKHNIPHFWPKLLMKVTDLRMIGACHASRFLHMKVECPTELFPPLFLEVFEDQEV", "assay": "TREpal2-tk-CAT reporter assay in CV-1 cells", "format": "cell-based", "settings": "T3 10^−7 M", "protocol": "Receptor expression vectors and a reporter gene (TREpal2-tk-CAT for RXRα/TRα heterodimers (FIG. 9C), and DR1 tk-CAT for RXRα/PPARγ heterodimer (FIG. 9B)) were transiently transfected into CV-1 cells. Cells were treated with or without ligands (ciglitazone, 10^−6 M; T3, 10^−7 M) in the presence or absence of Sulindac. CAT activity was determined.\nCells (1×10^5 cells/well) seeded in 24-well plates were transiently transfected using a modified calcium phosphate precipitation procedure as described (Kolluri, S. K. et al., Proc Natl Acad Sci USA 102 (7), 2525-2530 (2005); Cao, X., et al., Mol Cell Biol 24(22), 9705-9725 (2004))."}, "AKT [3]": {"test_system": "AKT", "assay": "Basal AKT activation by immunoblotting", "format": "cell-based", "settings": "various cancer cell lines incl. SW480 and HCT116, 100 μM, 1 hr", "protocol": "HepG2, SW480, RAW264.7, HCT116, LNCaP, PC3, ZR-75-1, and HaCat cells were starved overnight and treated with Sulindac (100 μM) for 1 hr and analyzed for AKT activation by immunoblotting (FIG. 3A). HepG2 cells were also transfected with RXRα siRNA for 48 hours, treated with Sulindac (100 μM) for 1 hour, and analyzed for AKT activation and RXRα expression by immunoblotting (FIG. 3B).\nFor immunoblotting, cell lysates were boiled in SDS sample buffer, resolved by SDS-polyacrylamide gel electrophoresis, and transferred to nitrocellulose. After transfer, the membranes were blocked in 5% milk in TBST (10 mM Tris-HCl, pH. 8.0, 150 mM NaCl, 0.05% Tween 20) containing antibody. The membranes were then washed three times with TBST, then incubated for 1 hr at room temperature in 5% milk in TBST containing horseradish peroxide-linked anti-immunoglobulin."}, "HepG2 cells [4]": {"test_system": "HepG2 cells", "assay": "Bax activation by Bax/6A7 immunostaining", "format": "cell-based", "protocol": "Activation of Bax by Sulindac and TNFα. HepG2 cells treated with TNFα and/or Sulindac were immunostained with Bax/6A7 antibody. […] HepG2 cells treated with TNFα or Sulindac alone or together were examined for Bax activation by immunostaining using conformation-sensitive Bax/6A7 antibody. Significant Bax staining was observed only when cells were treated with both TNFα and Sulindac (FIG. 6E). Cross-talk between extrinsic and intrinsic apoptotic pathways can be linked through Bid cleavage and activation (Li et al., Cell 94 (4), 491-501 (1998)). […] PC3 cells transfected with CA-AKT or DN-AKT were treated with TNFα and/or Sulindac, and analyzed by immunoblotting (FIG. 6F). Activation of caspase-8 (FIG. 6G) and Bax (FIG. 6H) by Sulindac and TNFα. HepG2 cells transfected with CA-AKT were treated with TNFα and Sulindac, and immunostained with anti-cleaved caspase-8 or Bax/6A7 antibody. […] Sulindac/TNFα-induced PARP cleavage was inhibited by transfection of constitutive-active AKT (CA-AKT) but enhanced by transfection of dominant-negative AKT (DN-AKT) (FIG. 6F). Consistently, induction of apoptosis (FIG. 17B) and activation of caspase-8 (FIG. 6G) and Bax (FIG. 6H) by Sulindac/TNFα combination was inhibited by CA-AKT."}, "HepG2 cells [5]": {"test_system": "HepG2 cells", "assay": "Caspase-8 activation by anti-cleaved caspase-8 immunostaining", "format": "cell-based", "settings": "TNFα and Sulindac", "protocol": "PC3 cells transfected with CA-AKT or DN-AKT were treated with TNFα and/or Sulindac, and analyzed by immunoblotting (FIG. 6F). Activation of caspase-8 (FIG. 6G) and Bax (FIG. 6H) by Sulindac and TNFα. HepG2 cells transfected with CA-AKT were treated with TNFα and Sulindac, and immunostained with anti-cleaved caspase-8 or Bax/6A7 antibody. […] Sulindac/TNFα-induced PARP cleavage was inhibited by transfection of constitutive-active AKT (CA-AKT) but enhanced by transfection of dominant-negative AKT (DN-AKT) (FIG. 6F). Consistently, induction of apoptosis (FIG. 17B) and activation of caspase-8 (FIG. 6G) and Bax (FIG. 6H) by Sulindac/TNFα combination was inhibited by CA-AKT."}}, "data": [{"smiles": "CC1=C(CC(=O)O)c2cc(F)ccc2/C1=C\\c1ccc(C(C)C)cc1", "note": "[K-80003, (Z)-2-(3-(4-Iso-propylbenzylidene)-6-fluoro-2-methyl-3H-inden-1-yl)acetic acid]", "values": [{"measurement": "binding to RXRα by 19F NMR", "setting": "RXRα LBD", "value": "confirmed"}, {"measurement": "inhibition of ATRA-induced AKT activation, compared with Sulindac", "setting": "AKT [1]", "value": "much more effective than Sulindac"}, {"measurement": "inhibition of COX-1 activity", "setting": "COX-1", "value": "no detectable inhibition"}, {"measurement": "inhibition of COX-2 activity", "setting": "COX-2", "value": "no detectable inhibition"}, {"measurement": "inhibition of RXRα/Δ80 tumor growth, compared with Sulindac", "setting": "RXRα/Δ80 tumor", "value": "much more potent inhibitory effect than Sulindac"}, {"measurement": "bioavailability", "setting": "[2]; oral compared to intravenous formulation", "value": "increased bioavailaility in oral compared to intravenous formulation"}, {"measurement": "PK profiles", "setting": "[2]; preclinical study", "value": "desirable PK profiles"}]}, {"smiles": "CSc1ccc(/C=C2/C(C)=C(CC(=O)O)c3cc(F)ccc32)cc1", "note": "[Sulindac, (Z)-2-(3-(4-(Methylthio)benzylidene)-6-fluoro-2-methyl-3H-inden-1-yl)acetic acid]", "values": [{"measurement": "binding to RARγ", "setting": "RARγ protein", "value": "did not bind"}, {"measurement": "transactivation of RXR/TR heterodimers (CAT activity)", "setting": "RXRα/TRα heterodimers", "value": "not RXR/TR heterodimers"}, {"measurement": "inhibition of basal AKT activation", "setting": "AKT [3]", "value": "Significant inhibition"}, {"measurement": "cells showing Bax staining, Sulindac/TNFα", "setting": "HepG2 cells [4]; Bax/6A7 antibody", "value": "about 60%"}, {"measurement": "cells exhibiting Bax staining, CA-AKT-transfected", "setting": "HepG2 cells [4]; TNFα and Sulindac", "value": "about 13%"}, {"measurement": "cells exhibiting Bax staining, nontransfected", "setting": "HepG2 cells [4]; TNFα and Sulindac", "value": "About 60%"}, {"measurement": "cells showing caspase-8 staining, CA-AKT-transfected", "setting": "HepG2 cells [5]", "value": 15, "unit": "%"}, {"measurement": "cells showing caspase-8 staining, nontransfected", "setting": "HepG2 cells [5]", "value": "About 80%"}]}]}
